Source: ChEMBL document CHEMBL6153125, “Harnessing the Magic Methyl Effect: Discovery of CLPP-2068 as a Novel HsClpP Activator for the Treatment of Diffuse Large B-Cell Lymphoma” (J Med Chem, 2025)

Experiments:
[1] = target: ATP-dependent Clp protease proteolytic subunit, mitochondrial (Homo sapiens, UniProt Q16740); assay: Activation of human ClpP extracted from Escherichia coli using Ac-WLA-AMC as substrate assessed as fluorescence signal measured after 10 mins incubation
OCI-Ly10 = assay: Antiproliferative activity against human OCI-Ly10 cells assessed as cell viability measured after 72 hrs incubation by CellTiter-based growth inhibition assay; conditions: OCI-Ly10, 72 h
[2] = Half life in ICR mouse at 15 mg/kg, po measured upto 24 hrs by LC-MS/MS analysis; conditions: in vivo
[3] = MRT in ICR mouse at 15 mg/kg, po measured upto 24 hrs by LC-MS/MS analysis; conditions: in vivo
[4] = Half life in ICR mouse at 5 mg/kg, iv measured upto 24 hrs by LC-MS/MS analysis; conditions: in vivo
[5] = Clearance in ICR mouse at 5 mg/kg, iv measured upto 24 hrs by LC-MS/MS analysis; conditions: in vivo
[6] = MRT in ICR mouse at 5 mg/kg, iv measured upto 24 hrs by LC-MS/MS analysis; conditions: in vivo
[7] = Metabolic stability in human liver microsomes assessed as half life
[8] = Metabolic stability in human liver microsomes assessed as intrinsic clearance
in vivo [9] = conditions: ICR, mouse, po, 15 mg/kg
Description: Tmax in ICR mouse at 15 mg/kg, po measured upto 24 hrs by LC-MS/MS analysis

in vivo [10] = conditions: ICR, mouse, po, 15 mg/kg; remark: listed apart in the source
Description: Cmax in ICR mouse at 15 mg/kg, po measured upto 24 hrs by LC-MS/MS analysis

in vivo [11] = conditions: ICR, mouse, po, 15 mg/kg; remark: listed apart in the source
Description: AUC (0 to t) in ICR mouse at 15 mg/kg, po measured upto 24 hrs by LC-MS/MS analysis

in vivo [12] = conditions: ICR, mouse, po, 15 mg/kg; remark: listed apart in the source
Description: Oral bioavailability in ICR mouse at 15 mg/kg measured upto 24 hrs by LC-MS/MS analysis

in vivo [13] = conditions: ICR, mouse, iv, 5 mg/kg
[14] = target: Voltage-gated inwardly rectifying potassium channel KCNH2 (Homo sapiens, UniProt Q12809)
Voltage-gated inwardly rectifying potassium channel KCNH2, sequence (Q12809 whole entry): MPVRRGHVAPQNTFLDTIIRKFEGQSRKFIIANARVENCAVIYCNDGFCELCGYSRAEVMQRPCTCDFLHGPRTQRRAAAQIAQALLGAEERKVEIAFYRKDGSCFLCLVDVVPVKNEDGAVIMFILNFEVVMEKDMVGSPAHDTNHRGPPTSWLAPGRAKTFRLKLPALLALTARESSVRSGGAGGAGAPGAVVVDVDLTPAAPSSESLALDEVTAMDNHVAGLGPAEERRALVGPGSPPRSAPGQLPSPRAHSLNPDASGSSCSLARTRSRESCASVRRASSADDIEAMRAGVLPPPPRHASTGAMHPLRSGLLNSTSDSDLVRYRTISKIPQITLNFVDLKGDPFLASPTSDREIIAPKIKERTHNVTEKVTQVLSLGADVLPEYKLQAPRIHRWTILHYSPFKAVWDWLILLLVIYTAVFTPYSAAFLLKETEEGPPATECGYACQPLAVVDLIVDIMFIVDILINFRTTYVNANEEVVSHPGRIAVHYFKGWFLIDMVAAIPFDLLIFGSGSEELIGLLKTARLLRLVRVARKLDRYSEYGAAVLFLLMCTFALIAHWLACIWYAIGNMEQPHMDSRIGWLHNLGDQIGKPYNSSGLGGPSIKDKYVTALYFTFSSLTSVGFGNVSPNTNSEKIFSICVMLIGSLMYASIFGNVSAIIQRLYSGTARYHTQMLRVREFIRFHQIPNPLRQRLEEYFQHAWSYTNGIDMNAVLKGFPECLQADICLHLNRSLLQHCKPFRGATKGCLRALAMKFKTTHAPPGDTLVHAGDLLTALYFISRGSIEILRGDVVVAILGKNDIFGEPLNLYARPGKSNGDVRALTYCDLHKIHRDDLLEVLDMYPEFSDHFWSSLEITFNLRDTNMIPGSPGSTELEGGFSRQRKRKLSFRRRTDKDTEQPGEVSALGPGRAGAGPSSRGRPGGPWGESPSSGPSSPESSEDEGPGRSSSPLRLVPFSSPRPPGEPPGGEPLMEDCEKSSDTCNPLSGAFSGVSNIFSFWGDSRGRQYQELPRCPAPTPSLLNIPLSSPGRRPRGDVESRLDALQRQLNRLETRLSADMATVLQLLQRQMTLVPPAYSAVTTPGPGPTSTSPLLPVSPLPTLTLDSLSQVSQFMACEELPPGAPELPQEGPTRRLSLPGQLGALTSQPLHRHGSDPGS

ATP-dependent Clp protease proteolytic subunit, mitochondrial, sequence (Q16740 whole entry): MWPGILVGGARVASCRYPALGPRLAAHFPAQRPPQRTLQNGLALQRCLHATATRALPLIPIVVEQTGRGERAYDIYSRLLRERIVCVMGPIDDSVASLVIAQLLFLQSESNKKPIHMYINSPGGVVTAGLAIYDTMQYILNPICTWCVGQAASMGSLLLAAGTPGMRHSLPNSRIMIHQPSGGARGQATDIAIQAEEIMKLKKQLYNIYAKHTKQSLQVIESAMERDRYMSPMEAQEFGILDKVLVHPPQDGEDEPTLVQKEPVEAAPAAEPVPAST

Row | EC50 [1] [nM] | IC50 (OCI-Ly10) [nM] | Structure (SMILES) | also measured
1 | 44.8 | 89.1 | C[C@@H]1Cc2nc(NCc3cccc(Br)c3)[nH]c(=O)c2CN1Cc1cccc(C#N)c1 | –
2 | 265 | 47.5 | C[C@@H]1Cc2nc(NCc3ccc(Br)c(F)c3)[nH]c(=O)c2CN1Cc1cccc(C#N)c1 | –
3 | 349 | 119 | C[C@@H]1Cc2nc(NCc3ccccc3Br)[nH]c(=O)c2CN1Cc1cccc(C#N)c1 | –
4 | 67.9 | 105 | C[C@@H]1Cc2nc(NCc3cccc4ccccc34)[nH]c(=O)c2CN1Cc1cccc(C#N)c1 | –
5 | 707 | 5750 | C[C@@H]1Cc2nc(N3CCC(c4ccccc4)C3)[nH]c(=O)c2CN1Cc1cccc(C#N)c1 (stereo partly drawn) | –
6 | 1430 | 4030 | C[C@@H]1Cc2nc(NCC3CC3)[nH]c(=O)c2CN1Cc1cccc(C#N)c1 | –
7 | – | – | Cc1ccccc1CN1C(=O)C2=C(CCN(Cc3ccccc3)C2)N2CCN=C12.Cl.Cl.O | half-life at 24 h [2]: 63 min; MRT at 24 h [3]: 87.6 min; half-life at 24 h [4]: 54.6 min; clearance at 24 h [5]: 42.7 mL/min/kg; MRT at 24 h [6]: 51.6 min; half-life [7]: 558 min; CLint scaled [8]: 187 mL/min/kg; Tmax at 24 h (in vivo [9]): 25.2 min; Cmax at 24 h (in vivo [10]): 566 ng/mL; AUC(0-t) at 24 h (in vivo [11]): 894 ng·h/mL; bioavailability at 24 h (in vivo [12]): 15.2%; AUC(0-t) at 24 h (in vivo [13]): 1960 ng·h/mL
8 | 26.9 | 117 | Cc1ccc(CNc2nc3c(c(=O)[nH]2)CN(Cc2cccc(C#N)c2)[C@H](C)C3)cc1 | –
9 | – | – | C[C@@H]1Cc2nc(NCc3ccc(Br)cc3)[nH]c(=O)c2CN1Cc1cccc(C#N)c1 | IC50 [14]: 4910 nM
10 | 761 | 8210 | C[C@@H]1Cc2nc(NCc3ccc(C(F)(F)F)cc3)[nH]c(=O)c2CN1Cc1cccc2ccccc12 | –
11 | 3960 | 6400 | C[C@@H]1Cc2nc(NCc3ccc(C(F)(F)F)cc3)[nH]c(=O)c2CN1Cc1ccncc1 | –
12 | 1290 | 3100 | C[C@@H]1Cc2nc(NCc3ccc(C(F)(F)F)cc3)[nH]c(=O)c2CN1Cc1ccccc1F | –
13 | 43.4 | 45 | Cc1ccccc1CNc1nc2c(c(=O)[nH]1)CN(Cc1cccc(C#N)c1)[C@H](C)C2 | –
14 | 59.2 | 13.5 | C[C@@H]1Cc2nc(NCc3ccc(Cl)cc3)[nH]c(=O)c2CN1Cc1cccc(C#N)c1 | –
15 | 1360 | 6040 | C[C@@H]1Cc2nc(NCc3ccc(C(F)(F)F)cc3)[nH]c(=O)c2CN1Cc1ccc(C#N)cc1 | –
16 | 1000 | 9010 | COc1cccc(CN2Cc3c(nc(NCc4ccc(C(F)(F)F)cc4)[nH]c3=O)C[C@H]2C)c1 | –
17 | 62.8 | 50.5 | C[C@@H]1Cc2nc(NCc3ccc(C(F)(F)F)cc3)[nH]c(=O)c2CN1Cc1cccc(Br)c1 | –
